Data published in patent US20220125746A1, “METHOD OF PREVENTING OR TREATING TREATMENT-INDUCED GASTROINTESTINAL INJURY” (priority 2019, published 2022).
Where a name gives a salt, the structure may show the parent alone.

Columns and labels:
mouse colonic organoids = experiment: Mouse colonic organoids treated with CPT; assay type: cell-based; conditions: CPT 500 nM 24 h
Experimental: Fresh mucosal scrapings from 10 cm of jejunum were washed in cold PBS, resuspended in 700 ul of RNA lysis buffer, and homogenized in a Dounce homogenizer. RNA was isolated using the Quick-RNA MiniPrep kit (Zymo Research) according to the manufacturer's instructions. Organoids were freed from Matrigel using Cell Recovery Solution (Corning), as described in, before RNA isolation. Complementary DNA was generated from 2 ug of total RNA from mice or ˜100 ng of total RNA from colonic organoids and was pooled from three mice or three wells of organoid culture per treatment group using SuperScript III reverse transcriptase (Invitrogen) and random primers. Gene expression was normalized to Gapdh. Representative results are shown, and similar results were obtained in at least three independent experiments. Details on mouse and human primers are found in Tables 1 and 2.
Mouse crypt isolation, organoid development, and passage were done as previously described with minor modifications. In brief, the complete culture medium for mouse intestinal organoids was slightly modified as follows: advanced Dulbecco's modified Eagle medium (DMEM)/F12 (12634-010, Invitrogen) was supplemented with 100 units/ml penicillin/0.1 mg/ml streptomycin (Invitrogen), 2 mM GlutaMAX (ThermoFisher), 20% (vol/vol) FBS (S11150, ATLANTA Biologicals), and WRN-conditioned medium (50%, vol/vol). Freshly isolated crypts were cultured with the same medium plus 10 μM Y-27632 (Y0503 Sigma) and 100 μg/ml Primocin (ant-pm-1, InvivoGen). For CPT and PUMAi treatment, intestinal organoids were passaged and re-plated in 25 μL of Matrigel (356231, Corning) in 24-well plates 24 hours before treatment with CPT (0.5 μM, C9911, Sigma-Aldrich) and PUMAi (50 μM) for 24 hours. The CPT-containing medium was replaced with complete medium containing PUMAi (50 μM). Three groups (treatment control, CPT only, and CPT plus PUMAi) were set up. Organoids 100 μm or greater in diameter were enumerated on day 6 after CPT treatment. Similar results were obtained from at least three independent experiments with triplicate wells in each experiment.

LGR5+ stem cells = conditions: after six doses of CPT-11
Experimental: WT and Puma KO mice carrying the Lgr5-EGFP-IRES-creERT2 marking allele were treated with CPT-11 and PUMAi over 2 weeks as in FIGS. 5A-5G and analyzed for intestinal phenotypes. (FIG. 6A) GFP (LGR5) immunofluorescence in intestinal crypts. Arrows indicate LGR5^+ (GFP) crypts. Scale bar, 100 um. (FIG. 6B) Quantitation of intestinal crypts containing at least one GFP^+ (LGR5^+) cell. (FIG. 6C) Top: Olfm4 RNA ISH in intestinal crypts. Scale bar, 50 um. Asterisks indicate Olfm4+ crypt cells. Bottom: Percentage of crypts containing at least one Olfm4+ cell. (FIG. 6D) MMP7 immunofluorescence in intestinal crypts. Scale bar, 100 um. (FIG. 6E) Quantitation of MMP7+ crypt cells at the crypt base (CBC region). (FIG. 6F) Top: GFP (LGR5) and MMP7 immunofluorescence in intestinal crypts. Scale bar, 20 um. Asterisks indicate LGR5^+/MMP7^+ cell pairs. Bottom: Quantitation of LGR5^+/MMP7^+ cell pairs per crypt. In (FIG. 6A), (FIG. 6D), and (FIG. 6F), DAPI was used to stain nuclei. In (FIG. 6B), (FIG. 6C), (FIG. 6E), and (FIG. 6F), values are means+SEM; n=3 mice. *P<0.05, **P<0.01, and ***P<0.001 (one-way ANOVA with Tukey post hoc test).
LGR5 (GFP) IF. Sections were deparaffinized and rehydrated through graded ethanols. Antigen retrieval was performed by boiling for 10 minutes in 0.1 M citrate buffer (pH 6.0) with 1 mM EDTA. Non-specific antibody binding was blocked using 20% goat serum (Invitrogen) at room temperature for 30 min. […] Sections were then washed in PBS and mounted with VectaShield+DAPI (Vector Labs).
MMP7 IF. Sections were prepared as described above. Non-specific antibody binding was blocked using 20% chicken serum (Invitrogen) at room temperature for 30 min. Sections were washed in PBS and incubated overnight at 4 °C in a humidified chamber with 1:100 diluted goat anti-MMP7 (AF2967; R&D Systems). […] Sections were then washed in PBS and mounted with VectaShield+DAPI (Vector Labs) for visualization.
LGR5(GFP)/1VIMP7 IF. Sections were prepared as described above. Non-specific antibody binding was blocked using 20% chicken serum (Invitrogen) at room temperature for 30 min. Sections were then stained for GFP as described above, followed by staining for MMP7 as described.
ISH for Olfm4 was carried out with the RNAscope 2.0 BROWN kit (Advanced Cell Diagnostics) according to the manufacturer's instructions. Briefly, tissue sections were baked for 60 min at 60 ÅåC, then deparaffinized in xylene, and rehydrated through graded ethanols. Sections then underwent three pretreatment steps, probe hybridization, six amplification steps, development, and counterstaining.

[1] = colorectal cancer patients; cited from earlier work
intestinal crypts = experiment: CPT-11-induced intestinal crypt apoptosis in mice (TUNEL, active caspase-3); conditions: single dose 200 mg/kg, WT mice, TUNEL and active caspase-3
Experimental: Puma+/+ (WT) and Puma−/− (Puma KO) mice (52) were generated in-house by heterozygote breeding. WT and Puma KO alleles were genotyped from genomic DNA isolated from tail snips, as described (52). p53−/− (p53 KO) mice were purchased from the Jackson Laboratory. […] All strains are in or have been backcrossed with the C57BL/6 background for more than 10 generations (F10). Mice were housed in microisolator cages in a room illuminated from 07:00 to 19:00 hours (12:12-hour light/dark cycle), with access to water and chow ad libitum.
Rehydrated sections were treated with 3% hydrogen peroxide (immunochemistry only), followed by antigen retrieval for 10 min in boiling 0.1 M citrate buffer (pH 6.0) with 1 mM EDTA. Apoptosis was analyzed by TUNEL staining with the ApopTag Peroxidase In Situ Apoptosis Detection kit (Chemicon International) according to the manufacturer's instructions.
Active caspase 3 IHC. Sections were deparaffinized and rehydrated through graded ethanols. Rehydrated sections were then treated with 3% hydrogen peroxide, followed by antigen retrieval for 10 minutes in boiling 0.1 M citrate buffer (pH 6.0) with 1 mM EDTA. Non-specific antibody binding was blocked using 20% goat serum (Invitrogen) at room temperature for 30 minutes.

C57BL/6J mice = experiment: Survival and GI injury after three daily doses of CPT-11; assay type: in vivo, mouse; conditions: for lethality: three consecutive daily doses, C57BL/6J WT mice
Excerpt: (§1) Immediately after sacrifice, about 10-cm portion of the jejunum was removed and carefully rinsed with ice-cold saline. The tissue was opened longitudinally and tacked to a foam board for fixation overnight in 10% formalin. Tissues were then rolled up into “swiss rolls” and embedded in paraffin. For tumor analysis, flank tumors were removed, measured, and cut into pieces for either formalin fixation or flash freezing in a dry ice/ethanol bath. Tissue sections (5 um) were deparaffinized and rehydrated through graded ethanols. Histological analysis was performed by hematoxylin and eosin (H&E) staining.
; CPT-11). […] . […] BH3-only proteins BIM and NOXA were not induced by CPT-11 or affected by Puma KO (FIG. 8F). […] . […] . Histological analysis confirmed lethal GI injury in WT and p53 KO mice on day 5, showing severe loss of crypts and shortening of villi, which was abrogated in Puma KO mice (FIG. 1F).

[2] = test system: Lewis lung carcinoma (LLC) tumors; experiment: LLC tumor-bearing mice treated with CPT-11 six times over 2 weeks; assay type: in vivo, mouse; conditions: LLC tumor experiments
Experimental: For tumor experiments, 4 million LLC cells [American Type Culture Collection (ATCC)] were injected into the flanks of WT and Puma KO mice and allowed to grow for 11 days. Mice were then treated with CPT-11 (200 mg/kg) three times per week for 2 weeks. PUMAi (10 mg/kg) or vehicle control was administered by intraperitoneal injection 2 hours before and 20 hours after each dose of CPT-11. Mice were sacrificed 4 hours after the final CPT-11 treatment.
For tumor experiments, mice were treated with CPT-11 three times per week for two weeks. Mice receiving PUMAi were treated 2 hours before each dose of CPT-11 and 20 hours after. Mice were sacrificed four hours after the final CPT-11 treatment (FIG. 13A). Tumor volumes were measured with calipers and calculated as volume=(length x width2)/2. Mice were 7-9 weeks old, and roughly equal numbers of male and female animals were used. To account for variations in starting body weights, the values in FIGS. 3 and 4 are expressed as a percentage of the respective mouse weights at the time of the first CPT-11 treatment.
as §1
Average villus height was determined by measuring 40 to 50 villi from different locations of the small intestine, from at least three different animals per group, and reported as means A} SEM. Measurements were made from the top of the crypt to the tip of the villus using 100 Å˜H&E images and SPOT 5.1 Advanced software (Diagnostic Instruments Inc.).
Neutrophil IF. Sections were prepared as described above. […] Sections were then incubated with AlexaFluor-594 goat antirat secondary antibodies (1:200; A11007; Invitrogen) for 1 hour at room temperature and counterstained with VectaShield plus DAPI.

[3] = test system: colon cancer cell line DLD1; experiment: PUMA-induced apoptosis inhibition in DLD1
Experimental: (§2) PUMAi was added to cells at 25 uM at the same time as CPT.
(§3) A minimum of 300 cells per treatment were analyzed in triplicate.

[4] = test system: colon cancer cell line HCT-116; experiment: PUMA-induced apoptosis inhibition in HCT-116
Experimental: as §2, §3

p53 = biological target: T1, p53 (Rattus norvegicus, UniProt P10361); conditions: rats, cited from earlier work
T1 construct: host or cells: rat intestine in vivo
T1 sequence (P10361 whole entry): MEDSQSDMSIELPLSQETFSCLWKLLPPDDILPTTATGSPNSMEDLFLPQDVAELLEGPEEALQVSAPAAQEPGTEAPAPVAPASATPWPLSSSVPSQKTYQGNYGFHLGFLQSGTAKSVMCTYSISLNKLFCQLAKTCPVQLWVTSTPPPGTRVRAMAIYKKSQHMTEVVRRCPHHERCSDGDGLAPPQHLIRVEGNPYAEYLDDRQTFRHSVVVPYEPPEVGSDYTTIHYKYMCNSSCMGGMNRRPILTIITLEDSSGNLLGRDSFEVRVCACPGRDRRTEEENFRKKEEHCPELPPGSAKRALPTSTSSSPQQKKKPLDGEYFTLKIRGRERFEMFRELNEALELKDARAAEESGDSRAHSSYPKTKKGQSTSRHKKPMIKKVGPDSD

Row | Compound | Apoptosis inhibition of DLD1 [3] | Apoptosis inhibition of HCT-116 [4] | further results
1 | CC[C@@]1(O)C(=O)OCc2c1cc1n(c2=O)Cc2cc3ccccc3nc2-1 [CPT, camptothecin, reference compound] | – | – | effect of CPT on mouse colonic organoids (mouse colonic organoids): induced growth suppression and activation of caspase-3
2 | CCc1c2c(nc3ccc(OC(=O)N4CCC(N5CCCCC5)CC4)cc13)-c1cc3c(c(=O)n1C2)COC(=O)[C@]3(O)CC [CPT-11, irinotecan hydrochloride, reference compound] | – | – | drop in Olfm4+ crypts (RNA ISH) (LGR5+ stem cells): 93%; reduction of LGR5+ crypt cells and fraction of LGR5+ crypts (LGR5+ stem cells): more than 90%; patients with severe diarrhea and nausea [1]: more than 50%; time of peak crypt apoptosis (intestinal crypts): 6 h; lethality (C57BL/6J mice; 180 mg/kg per day): 30%; lethality (C57BL/6J mice; 215 mg/kg per day): 90%; lethality (C57BL/6J mice; 250 mg/kg per day): 100%; survival at the LD90 of CPT-11, without PUMAi (C57BL/6J mice; CPT-11 215 mg/kg per day x3, WT mice): 10%; % mice compieting treatment ([2]; PUMA KO mice): 100% (6/6); % mice compieting treatment ([2]; WT mice): 73% (8/11)
3 | O=c1[nH]cc(F)c(=O)[nH]1 [Compound 5-FU, 5-fluorouracil] | – | – | patients with chemotherapy induced diarrhea [1]: 50%
4 | Cc1ccc(OCC(=O)N/N=C/c2cccc(O)c2)cc1C [Compound 7a] | 41% | 33% | –
5 | Cc1ccc(OCC(=O)N/N=C/c2cccc(O)c2)cc1 [Compound 7b] | −2% (no inhibition) | 21% | –
6 | COc1cccc(/C=N/NC(=O)COc2cccc(C)c2)c1OC [Compound 7c] | 26% | 21% | –
7 | O=C(CCc1ccccc1)N/N=C/c1cccc(O)c1 [Compound 7d] | 24% | 21% | –
8 | Cc1ccc(OCC(=O)Nc2ccc(N3CCOCC3)cc2)cc1 [Compound 7e] | 30% | 44% | –
9 | Cc1ccc(OCC(=O)Nc2ccc(S(N)(=O)=O)cc2)cc1 [Compound 7f] | −2% (no inhibition) | −8% (no inhibition) | –
10 | N#CCc1ccc(NC(=O)COc2ccc3c(c2)CCC3)cc1 [Compound 7g] | 24% | −17% (no inhibition) | –
11 | COc1cccc(/C=C/NC(=O)CNc2ccc(C)cc2)c1 [Compound 7h] | 30% | 33% | –
12 | Cc1ccc(/C=N/NC(=O)COc2ccc(C)c(C)c2)o1 [Compound 7i] | 26% | 13% | –
13 | CC(C)c1ccc(OCC(=O)N/N=C/c2cccnc2)cc1 [Compound 7j] | 26% | −8% (no inhibition) | –
14 | CCCCc1c(C)nc(N2CCN(CCO)CC2)[nH]c1=O [Compound 20647237] | 21% | – | –
15 | CC(C)CNC(=O)c1ccc2c(c1)nc1n2CCN(C(C)(C)CO)C1 [Compound 20722356] | 36% | – | –
16 | Cc1ccc(OCC(O)CN2CCN(CCO)CC2)cc1C (stereo not drawn) [Compound 21487182] | 61% | 35% | –
17 | COc1ccc(CCNC(=O)COc2ccc(C)cc2)cc1OC [Compound V1] | 41% | 38% | –
18 | CCc1ccc(OCC(=O)NCc2ccc3c(c2)OCO3)cc1 [Compound V2] | 39% | 40% | –
19 | Cc1ccc(C(=O)Cn2c3c(sc2=N)CCCC3)cc1 [pifithrin-α] | – | – | delayed cell death and onset of mucositis (p53; CPT-11): did not affect delayed cell death or the onset of mucositis; CPT-11-induced intestinal apoptosis (p53; within the first several hours): reduced CPT-11-induced intestinal apoptosis
